# Assay results published in patent US20130244255A1, “ANTIBODIES DIRECTED TO GPNMB AND USES THEREOF” (priority 2006, published 2013).
# Legend:
# human interleukin-8 = assay: Plasma human IL-8 (ELISA) in SK-MEL-2 xenograft-bearing athymic mice; format: in vivo
# Procedure: Interleukin-8 (IL-8) was measured by an enzyme-linked immunosorbent assay using a commercial kit (Human CXCL8/IL-8 Quantikine ELISA Kit, 3rd Generation; R&D Systems, Minneapolis, Minn.), which recognizes human, but not mouse, IL-8. Assays were conducted according to the manufacturer's instructions in which the IL-8 was detected by binding to IL-8 specific mAb pre-coated onto 96-well microliter plate. Standards and samples were pipetted into the wells and human IL-8 was bound by the immobilized antibody. After washing away the unbound substances, horseradish peroxidase-conjugated IL-8 specific polyclonal antibody was added to the wells. Following a wash, substrate solution was added and color developed; the plate was read on an ELISA plate reader. Results were calculated from a standard curve, generated by a four-parameter logistic curve fit, and expressed in picograms per milliliter. The lower limit of quantitation of the assay was 3.5 pg/mL and for each timepoint, n=3 mice. No human IL-8 could be detected in the blood of normal (non-tumor-bearing) athymic mice.
# Plasma concentrations of human IL-8 were measured by the species-specific ELISA assay described in Materials and Methods. At the beginning of treatment (day 16), the human IL-8 level in plasma was 29.8 pg/ml. […] At day 30 (14 days after treatment), plasma IL-8 level was not detected and remained undetectable for the duration of the experiment (FIG. 26).
# [1] = tested on: CG56972-expressing cancer cells; assay: Growth inhibition by CR011 with saporin-conjugated secondary antibody; format: cell-based, human; settings: data not shown
# SK-Mel-2 cells = assay: ADCC assay with human PBMC (DELFIA EuTDA cytotoxicity); format: cell-based; settings: 30 to 100 fold PBMC; 2, 5, 10 μg/200 μl mAb
# Procedure: Human PBMC were isolated from whole blood using a Ficoll-Plaque. Briefly, in a 50 mL tube, 15 mL of PBS was added to 20 mL of whole blood which was underlayed with 10 mL Ficoll-Plaque and the tube was centrifuged at 2000 RPM. Mononuclear cells were collected from the interface and washed 3 times with PBS. The ADCC assay was carried out in a 96 well plate using a fluorescence assay for cytolysis from Perkin-Elmer (DELFIAEuTDA Cytotoxic assay). The procedure is based on loading target cells with a fluorescence enhancing ligand (BATDA, bis (acetoxymethyl) terpyridine—dicarboxylate). The hydrophic ligand penetrates the membrane quickly. Within the cell the esterbonds are hydrolyzed to form a hydrophilic ligand (TDA, terpyridine—dicarboxylic acid) which can no longer pass through the membrane. After cytolysis the ligand is released and introduced to the Europium solution. The europium and the ligand form a highly fluorescent and stable chelate (EuTDA). Fluorescence intensity are recorded using excitation and emission wavelengths as λex=340 nm and λem=613 nm, respectively.
# GPNMB = target: T1, GPNMB (Homo sapiens, UniProt Q14956); assay: ELISA of hybridoma supernatants for binding to GPNMB
# T1 construct: we cloned the human CG56972 extracellular domain (ECD; aa 23-480); made in house; host or cells: HEK 293 cells
# T1 sequence (Q14956 23-492): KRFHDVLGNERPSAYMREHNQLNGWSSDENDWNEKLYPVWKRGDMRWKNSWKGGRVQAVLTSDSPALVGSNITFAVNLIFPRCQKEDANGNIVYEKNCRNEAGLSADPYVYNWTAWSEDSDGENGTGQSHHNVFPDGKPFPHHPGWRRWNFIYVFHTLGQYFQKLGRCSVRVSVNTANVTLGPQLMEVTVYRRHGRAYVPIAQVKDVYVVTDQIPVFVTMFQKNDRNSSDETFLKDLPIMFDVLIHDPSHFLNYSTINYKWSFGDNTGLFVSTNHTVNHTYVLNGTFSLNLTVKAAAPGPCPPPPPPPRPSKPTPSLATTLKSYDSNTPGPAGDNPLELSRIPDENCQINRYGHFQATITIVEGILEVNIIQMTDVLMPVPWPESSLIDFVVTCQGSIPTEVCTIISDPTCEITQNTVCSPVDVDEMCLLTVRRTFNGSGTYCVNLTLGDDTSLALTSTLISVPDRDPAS
# Procedure: After 14 days of culture, hybridoma supernatants were screened for GPNMB specific monoclonal antibodies. In the Primary screen, the ELISA plates (Fisher, Cat. No. 12-565-136) were coated with 50 μL/well of GPNMB (1 μg/mL) in Coating Buffer (0.1 M Carbonate Buffer, pH 9.6, NaHCO3 8.4 g/L), then incubated at 4° C. overnight. After incubation, the plates were washed with Washing Buffer (0.05% Tween 20 in PBS) three times. 200 μL/well Blocking Buffer (0.5% BSA, 0.1% Tween 20, 0.01% Thimerosal in 1×PBS) were added and the plates were incubated at room temperature for 1 h. After incubation, the plates were washed with Washing Buffer three times. Aliquots (50 μL/well) of hybridoma supernatants and positive and negative controls were added, and the plates were incubated at room temperature for 2 h. The positive control used throughout was serum from the relevant GPNMB immunized XenoMouse® mouse and the negative control was serum from the KLH-immunized relevant strain of XenoMouse® mouse. After incubation, the plates were washed three times with Washing Buffer. 100 μL/well of detection antibody goat anti-huIgGfc-HRP (Caltag, Cat. No. H10507, using concentration was 1:2000 dilution) was added and the plates were incubated at room temperature for 1 hour. After incubation, the plates were washed three times with Washing Buffer. 100 μl/well of TMB (BioFX Lab. Cat. No. TMSK-0100-01) was added, and the plates were allowed to develop for about 10 minutes (until negative control wells barely started to show color). 50 μl/well stop solution (TMB Stop Solution (BioFX Lab. Cat. No. STPR-0100-01) was then added and the plates were read on an ELISA plate reader at a wavelength of 450 nm.
# Hybridoma supernatants were screened for binding to GPNMB by ELISA as described above in Example 2.
Substance,"plasma IL-8 level (human interleukin-8; 1 mg/kg single bolus, day 17.5 (1.5 days after treatment))","plasma IL-8 level (human interleukin-8; 1 mg/kg single bolus, day 58 (42 days after treatment))","plasma IL-8 level (human interleukin-8; 10 mg/kg single bolus, day 17.5 (1.5 days after treatment))","plasma IL-8 level (human interleukin-8; 10 mg/kg single bolus, day 23 (7 days after treatment))","plasma IL-8 level (human interleukin-8; 10 mg/kg single bolus, day 30 (14 days after treatment) and after, lower limit of quantitation 3.5 pg/mL)",growth inhibition with saporin-conjugated secondary antibody (in words) [1],cytolysis of SK-MEL-2 cells (ADCC) (SK-Mel-2 cells),Avg OD (GPNMB; antibody at 12.3 ng/mL),Avg OD (GPNMB; antibody at 37 ng/mL),Avg OD (GPNMB; antibody at 111 ng/mL),Avg OD (GPNMB; antibody at 333 ng/mL),Avg OD (GPNMB; antibody at 1 μg/mL),Avg OD (GPNMB; antibody at 3 μg/mL)
CR011-vcMMAE: CR011 conjugated to monomethyl auristatin E through a protease cleavable valine-citrulline linker; approx. 4 drugs per antibody,46.3 pg/mL,414.63 pg/mL,52.85 pg/mL,24.39 pg/mL,not detected,–,–,–,–,–,–,–,–
"CR011: fully human monoclonal antibody that specifically binds to GPNMB; VH SEQ ID NO: 20, VL SEQ ID NO: 29",–,–,–,–,–,could specifically inhibit the growth,did not show any cytolysis,0.168,0.381,0.701,0.902,1.051,1.159
